Earlier results, collected in patent US20160007613A1, “Clonostachys rosea Inoculated Plant Materials with Fungicides and Adjuvants” (priority 2014, published 2016).

Test system: Clonostachys rosea ACM941
Conditions: research by Sutton and Brown; in words

Row | SMILES | toxicity to Clonostachys rosea ACM941
1 | COCC(=O)N(c1c(C)cccc1C)C(C)C(=O)OC (centres unmarked) [metalaxyl] | not metalaxyl is toxic
2 | CN(C)C(=S)SSC(=S)N(C)C [thiram] | toxic
